# Assay results reported in article PMC10101016, “The Photoactive Photosynthetic Reaction Center of a Rhodobacter sphaeroides Mutant Lacking 3-Vinyl (Bacterio)Chlorophyllide a Hydratase Contains 3-Vinyl Bacteriochlorophyll a” (Microbiology Spectrum, 2023).
# Read-outs that look alike come from different tables or passages of the source.
# Biological target: T1, reaction center (WT-RC, V-RC) (Cereibacter sphaeroides, UniProt Q3J1A5+Q3J1A6)
# T1 construct: gene pufL
smiles,measurement,setting,value
C=Cc1c(C)c2cc3nc(c4c5[nH]c(cc6nc(cc1[nH]2)[C@H](C)[C@H]6CC)c(C)c5C(=O)[C@@H]4C(=O)OC)[C@@H](CCC(=O)OC/C=C(\C)CCC[C@H](C)CCC[C@H](C)CCCC(C)C)[C@@H]3C [3V-Bpheo a],"pigment extraction and HPLC of purified RC, absorption spectrum","V-RC from BFcfh-puhA, H-sites","The V-RC was estimated to contain four 3V-Bchl a molecules, two 3V-Bpheo a molecules"
COC(C)(C)C/C=C/C(C)=C/C=C/C(C)=C/C=C/C(C)=C/C=C/C=C(C)/C=C/C=C(\C)CC/C=C(\C)CCC=C(C)C [SE],"pigment extraction and HPLC of purified RC, absorption spectrum","WT-RC and V-RC, photoheterotrophically grown cells","except for the presence of spheroidene (SE), which reflects the culture conditions"
COC(C)(C)C(=O)/C=C/C(C)=C/C=C/C(C)=C/C=C/C(C)=C/C=C/C=C(C)/C=C/C=C(\C)CC/C=C(\C)CCC=C(C)C [SO],"pigment extraction and HPLC of purified RC, absorption spectrum","WT-RC and V-RC, semiaerobically grown cells","two Bpheo a molecules, and one spheroidenone (SO) molecule"
